Laboratory results published in patent publication US20240132480A1, “INHIBITORS OF MYCOBACTERIUM TUBERCULOSIS LIPOAMIDE DEHYDROGENASE” (Cornell University, priority 2021, published 2024).
Read-outs that look alike come from different tables or passages of the source.

Assays:
Mtb Lpd = Mtb Lpd (Mycobacterium tuberculosis (strain ATCC 25618 / H37Rv), UniProt P9WHH9); format: biochemical
[1] = microsomes
[2] = 30 min preincubation, read-out: LPD IC50 (μM) w/ 30 min preincubation

Compound	IC50 (Mtb Lpd; read-out: LPD IC50) [µM]	Human Liver Microsome Stability [1] [µL/min/mg]	IC50 (Mtb Lpd; [2]) [µM]
O=C(Nc1ccc2c(c1)OCCN2C1CCOCC1)[C@@H]1CCN1S(=O)(=O)c1cc(Cl)cc2c(F)n[nH]c12 [Example 162]	0.059	91	–
Cc1cc(S(=O)(=O)N(C)CC(=O)Nc2ccc3c(c2)N(C2CCOCC2)CCO3)c2[nH]ncc2c1 [Example 163]	0.031	94	–
CN(C)CCOc1ccc(NC(=O)CN(C)S(=O)(=O)c2cccc3cn[nH]c23)cc1Cl [Example 164]	0.085	-16	–
CN(CC(=O)Nc1ccc2c(c1)OCCN2C1CCOCC1)S(=O)(=O)c1cc(Cl)cc2c(F)n[nH]c12 [Example 165]	0.037	162	–
CN(CC(=O)Nc1ccc2c(c1)OCCN2C1CCOCC1)S(=O)(=O)c1cc(Cl)cc2cn[nH]c12 [Example 166]	0.034	122	–
Cc1cc(S(=O)(=O)N2CC[C@H]2C(=O)Nc2ccc(OCCN(C)C)c(Cl)c2)c2[nH]ncc2c1 [Example 168]	0.143	1	–
Cc1cc(S(=O)(=O)N(C)CC(=O)Nc2ccc3c(c2)N(C2COC2)CCO3)c2[nH]ncc2c1 [Example 169]	0.038	39	–
Cc1cc(S(=O)(=O)N2CCC[C@@H](C(=O)Nc3ccc4c(c3)OCCN4C3COC3)C2)c2[nH]ncc2c1 [Example 170, N-1-((5-methyl-1H-indazol-7-yl)sulfonyl)-N-(4-(oxetan-3-yl)-3,4-dihydro-2H-benzo[b][1,4]oxazin-7-yl)piperidine-3-carboxamide]	0.051	34	–
CN(CC(=O)Nc1ccc2c(c1)OCCN2C1CCOCC1)S(=O)(=O)c1cc(C(F)F)cc2cn[nH]c12 [Example 171, 2-((5-(difluoromethyl)-N-methyl-1H-indazole)-7-sulfonamido)-N-(4-(tetrahydro-2H-pyran-4-yl)-3,4-dihydro-2H-benzo[b][1,4]oxazin-7-yl)acetamide]	0.078	102	–
CN(CC(=O)Nc1ccc2c(c1)OCCN2C1COC1)S(=O)(=O)c1cc(C2(O)CC2)cc2cn[nH]c12 [Example 173]	0.406	60	–
CN(CC(=O)Nc1ccc2c(c1)OCCN2C1CCOCC1)S(=O)(=O)c1cc(C2(O)CC2)cc2cn[nH]c12 [Example 174]	0.55	131	–
CN(CC(=O)Nc1ccc2c(c1)OCCN2C1CCOCC1)S(=O)(=O)c1cc(C(F)F)cc2c(F)[nH]nc12 [Example 175, 2-((5-(difluoromethyl)-3-fluoro-N-methyl-1H-indazole)-7-sulfonamido)-N-(4-(tetrahydro-2H-pyran-4-yl)-3,4-dihydro-2H-benzo[b][1,4]oxazin-7-yl)acetamide]	0.089	166	–
Cc1cc(S(=O)(=O)N(C)CC(=O)Nc2ccn(C)c(=O)c2)c2n[nH]c(Cl)c2c1 [Example 176, 2-((3-chloro-N,5-dimethyl-1H-indazole)-7-sulfonamido)-N-(1-methyl-2-oxo-1,2-dihydropyridin-4-yl)acetamide]	0.252	34	–
CC(C)(CO)N1CCOc2cc(NC(=O)[C@@H]3CCN3S(=O)(=O)c3cc(C(F)F)cc4cn[nH]c34)ccc21 [Example 177]	0.197	177	–
Cc1cc(S(=O)(=O)N2CC[C@H]2C(=O)Nc2ccn(C)c(=O)c2)c2[nH]nc(Cl)c2c1 [Example 178]	0.211	-13	–
Cc1cc(S(=O)(=O)N(C)CC(=O)Nc2ccc3c(c2)OCCN3C2CCOCC2)c2[nH]c(C#N)cc2c1 [Example 181, 2-((2-cyano-N,5-dimethyl-1H-indole)-7-sulfonamido)-N-(4-(tetrahydro-2H-pyran-4-yl)-3,4-dihydro-2H-benzo[b][1,4]oxazin-7-yl)acetamide]	0.095	195	–
CN(CC(=O)Nc1ccn(C)c(=O)c1)S(=O)(=O)c1cc(C(F)F)cc2c(F)n[nH]c12 [Example 183, 2-((5-(difluoromethyl)-3-fluoro-N-methyl-1H-indazole)-7-sulfonamido)-N-(1-methyl-2-oxo-1,2-dihydropyridin-4-yl)acetamide]	0.231	-15	–
O=C(Nc1ccc2c(c1)OCCN2C1COC1)[C@@H]1CCN1S(=O)(=O)c1cc(C(F)F)cc2c(F)n[nH]c12 [Example 184, (S)-1-((5-(difluoromethyl)-3-fluoro-1H-indazol-7-yl)sulfonyl)-N-(4-(oxetan-3-yl)-3,4-dihydro-2H-benzo[b][1,4]oxazin-7-yl)azetidine-2-carboxamide]	0.148	36	–
O=C(Nc1ccc2c(c1)OCCN2C1CCOCC1)[C@@H]1CCN1S(=O)(=O)c1cc(C(F)F)cc2c(F)n[nH]c12 [Example 185]	0.183	114	–
Cn1ccc(NC(=O)[C@@H]2CCN2S(=O)(=O)c2cc(C=O)cc3c(F)n[nH]c23)cc1=O [Example 186, (S)-1-((3-fluoro-5-formyl-1H-indazol-7-yl)sulfonyl)-N-(1-methyl-2-oxo-1,2-dihydropyridin-4-yl)azetidine-2-carboxamide]	1.04	153	–

Compound	IC50 (Mtb Lpd; read-out: LPD IC50) [µM]	Human Liver Microsome Stability [1] [µL/min/mg]	IC50 (Mtb Lpd; [2]) [µM]
Cc1cc(S(=O)(=O)N2CC[C@H]2C(=O)Nc2ccn(C)c(=O)c2)c2[nH]c(C#N)cc2c1 [Example 187, (S)-1-((2-cyano-5-methyl-1H-indol-7-yl)sulfonyl)-N-(1-methyl-2-oxo-1,2-dihydropyridin-4-yl)azetidine-2-carboxamide]	0.135	-2	–
Cc1cc(S(=O)(=O)N2CC[C@@H]2C(=O)Nc2ccn(C)c(=O)c2)c2[nH]c(C#N)cc2c1 [Example 188, (R)-1-((2-cyano-5-methyl-1H-indol-7-yl)sulfonyl)-N-(1-methyl-2-oxo-1,2-dihydropyridin-4-yl)azetidine-2-carboxamide]	8.85	5	–
Cc1cc(S(=O)(=O)N(C)CC(=O)Nc2ccc3c(c2)OCCN3C2COC2)c2[nH]c(C#N)cc2c1 [Example 189]	0.076	142	0.018
O=C(Nc1ccc(N2CCOCC2)c(Cl)c1)[C@@H]1CCN1S(=O)(=O)c1cc(C(F)F)cc2cn[nH]c12 [Example 190, (S)—N-(3-chloro-4-morpholinophenyl)-1-((5-(difluoromethyl)-1H-indazol-7-yl)sulfonyl)azetidine-2-carboxamide]	0.111	86	–
O=C(Nc1ccc(N2CCOCC2)c(Cl)c1)[C@H]1CCN1S(=O)(=O)c1cc(C(F)F)cc2cn[nH]c12 [Example 191, (2R)—N-(3-chloro-4-morpholino-phenyl)-1-[[5-(difluoromethyl)-1H-indazol-7-yl]sulfonyl]azetidine-2-carboxamide]	> 10	98	–
Cc1cc(S(=O)(=O)N(C)CC(=O)Nc2ccc(C3CCN(C4COC4)CC3)c(Cl)c2)c2[nH]ncc2c1 [Example 193, N-(3-chloro-4-(1-(oxetan-3-yl)piperidin-4-yl)phenyl)-2-((N,5-dimethyl-1H-indazole)-7-sulfonamido)acetamide]	0.053	73	–
Cc1cc(S(=O)(=O)N(C)CC(=O)Nc2ccc(C3CCN(C)CC3)c(Cl)c2)c2[nH]ncc2c1 [Example 194]	0.073	35	–
Cc1cc(S(=O)(=O)N2CC[C@H]2C(=O)Nc2ccc(N3CCOCC3)c(Cl)c2)c2[nH]c(C#N)cc2c1 [Example 195]	0.111	64	–
Cc1cc(S(=O)(=O)N(C)CC(=O)Nc2ccc(N3CCOCC3)c(Cl)c2)c2[nH]c(C#N)cc2c1 [Example 198]	0.087	137	–
Cc1cc(S(=O)(=O)N2CC[C@H]2C(=O)Nc2ccc(OCCN(C)C)c(Cl)c2)c2[nH]ncc2c1 [Example 199]	0.186	-7	0.045
CC#CCNC(=O)[C@@H]1CCN1S(=O)(=O)c1cc(C)cc2cn[nH]c12 [Example 200]	0.379	13	–
C#CCNC(=O)[C@@H]1CCN1S(=O)(=O)c1cc(C)cc2cn[nH]c12 [Example 201]	0.222	14	–
Cc1cc(S(=O)(=O)N2CC[C@H]2C(=O)NCC#N)c2[nH]ncc2c1 [Example 202]	0.323	4	–
Cc1cc(S(=O)(=O)N(C)CC(=O)NCC#Cc2ccccc2)c2[nH]ncc2c1 [Example 203]	0.043	129	–
CC#CCNC(=O)CN(C)S(=O)(=O)c1cc(C)cc2cn[nH]c12 [Example 204]	0.045	19	0.024
Cc1cc(S(=O)(=O)N2CC[C@H]2C(=O)NCC#Cc2ccccc2)c2[nH]ncc2c1 [Example 205]	0.154	205	–
Cc1cc(S(=O)(=O)N2CC[C@H]2C(=O)Nc2ccc3c(c2)OCCN3C2COC2)c2[nH]c(C#N)cc2c1 [Example 206, (S)-1-((2-cyano-5-methyl-1H-indol-7-yl)sulfonyl)-N-(4-(oxetan-3-yl)-3,4-dihydro-2H-benzo[b][1,4]oxazin-7-yl)azetidine-2-carboxamide]	0.081	111	0.022
Cc1cc(S(=O)(=O)N2CCC2C(=O)Nc2ccc(OCCN(C)C)c(C)c2)c2[nH]c(C#N)cc2c1 (centres unmarked) [Example 207]	0.225	-7	0.06
Cc1cc(S(=O)(=O)N(C)CC(=O)Nc2ccc3c(c2)N(C2COC2)CCO3)c2[nH]c(C#N)cc2c1 [Example 208]	–	341	0.015
